PMC4627231, “Targeting the sugar metabolism of tumors with a first-in-class 6-phosphofructo-2-kinase (PFKFB4) inhibitor” (Oncotarget, 2015)

Key:
[1] = test system: ATP in H460 cells; test: Intracellular ATP measurement; assay type: cell-based, human; settings: 10 μM, 6-72 hours
Description: Cells were lysed and intracellular ATP determined as described previously. All data are expressed as the mean ± SD of three experiments. Statistical significance was assessed by the two-sample t test (independent variable).

[2] = test system: A549 cells; test: Viable cell count (trypan blue exclusion); assay type: cell-based, human; settings: A549, 48 hours
Description: (§1) Viability was determined using trypan blue exclusion as previously described. Cells were incubated in 20% trypan blue (Sigma) for 5 minutes. Cells excluding trypan blue were counted using a standard hemocytometer (Hausser Scientific) to determine total numbers of viable cells. Data are expressed as mean ± SD of three experiments.

[3] = test system: H1299 cells; test: Viable cell count (trypan blue exclusion); assay type: cell-based, human; settings: H1299, 48 hours
Description: as §1

[4] = test system: H441 cells; test: Viable cell count (trypan blue exclusion); assay type: cell-based, human; settings: H441, 48 hours
Description: as §1

[5] = test system: H460 cells; test: Viable cell count (trypan blue exclusion); assay type: cell-based, human
Description: as §1

[6] = test system: H522 cells; test: Viable cell count (trypan blue exclusion); assay type: cell-based, human; settings: H522, 48 hours
Description: as §1

[7] = test system: HCT116 cells; test: Viable cell count (trypan blue exclusion); assay type: cell-based, human; settings: HCT116, 48 hours
Description: as §1

[8] = test system: LNCaP cells; test: Viable cell count (trypan blue exclusion); assay type: cell-based, human; settings: 48 hours
Description: as §1

[9] = test system: MDA-MB-231 cells; test: Viable cell count (trypan blue exclusion); assay type: cell-based, human; settings: MDA-MB-231, 48 hours
Description: as §1

[10] = test system: hT/LT/Ras cells; test: Viable cell count (trypan blue exclusion); assay type: cell-based, human; settings: live cells counted at 48 hours
Description: as §1

[11] = test system: H460 cells; test: Cell cycle analysis by flow cytometry (PI); assay type: cell-based, human; settings: 10μM 5MPN
Description: To measure apoptosis, cells were stained with annexin V and propidium iodide and examined as previously described. For cell cycle experiments, cells were detached, washed with cold PBS and fixed in 70% ethanol at 4°C for 30 minutes. The cells then were pelleted by centrifugation, resuspended in PBS containing PI and RNase A, incubated at 37°C in the dark for 30 minutes and analyzed by flow cytometry (BD FACSCalibur). Data were analyzed using FlowJo software (TREE STAR Inc.). Results were calculated as the mean ± SD of three experiments and data shown are representative of three independent experiments.

[12] = test system: 2-[18F]-fluoro-2-deoxyglucose uptake by LLC xenografts; test: FDG uptake by micro-PET in LLC tumors; assay type: in vivo, C57BL/6 mice; settings: 120 mg/kg by gavage, once, one hour before imaging
Description: At the end of the experiment, one hour after a single dose of DMSO or 5MPN, animals were euthanized, tumors removed and sections fixed in 10% formaldehyde for immunohistochemistry or snap-frozen in liquid nitrogen for analyses. Subsets of tumor-bearing mice (n=3) were administered a single dose of either DMSO or 5MPN one hour prior to imaging then injected i.p. with 2-[^18F]-fluoro-2-deoxyglucose (FDG, 150μCi, 100 μl) and, 45 min after FDG injection, were anesthetized with 2% isoflurane in oxygen and transferred to a R-4 Rodent Scanner (CTI Concorde Microsystems) micro-positron emission tomograph to capture images as previously described. Regions of interest in the tumors and cerebellum were quantified in quadruplicate and expressed as the mean ± SD of the ratio of tumor:cerebellar FDG uptake. Animal experiments were approved by the University of Louisville Institutional Animal Care and Use Committee.

In the case of `COc1cccc2c(NCCCCCO[N+](=O)[O-])ccnc12` [Compound 5MPN, 5-(n-(8-methoxy-4-quinolyl)amino)pentyl nitrate], the “effect on ATP” value [1] is reported as “reduced”, the effect on proliferation [2] is reported as “dose-dependent reduction in growth” and the effect on proliferation [3] is reported as “dose-dependent reduction in growth”. The effect on proliferation [4] was “dose-dependent reduction in growth”, the effect on proliferation ([5]; H460, 48 hours) was “dose-dependent reduction in growth” and the “effect of PFKFB4 over-expression on anti-proliferative effect” value ([5]; H460 cells transfected with PFKFB4 vs empty vector, 10μM 5MPN, 24 hours) was “protected”. For the same compound, the effect on proliferation [6] was “dose-dependent reduction in growth”, the effect on proliferation [7] was “dose-dependent reduction in growth” and the effect on proliferation [8] was “dose-dependent reduction in growth”. For the same compound, the effect on proliferation [9] was “dose-dependent reduction in growth”, the “effect on cell growth” value [10] was “suppressed similar to other transformed cells” and the cell cycle arrest [11] was “marked G1 arrest”. For the same compound, the “2-[18F]-fluoro-2-deoxyglucose uptake (positron emission tomography)” value [12] was “marked reduction”.
